From ChEMBL document CHEMBL6087414, “Discovery of 4-(4-(3-(1-(2-(piperidin-1-yl)ethyl)-1H-benzo[d]imidazole-2-yl)isoxazol-5-yl)phenyl)morpholine as a novel c-Myc inhibitor against lung cancer in vitro and in vivo” (Eur J Med Chem, 2025)
pIC50: −log10 of the molar value. The source made the active and inactive calls. The calls are words filed in the database; no cut-off is given here.

Key:
[1] = target: Myc proto-oncogene protein (Homo sapiens) (UniProt P01106); experiment: Inhibition of c-Myc in human NCI-H1299 cells by Western blot analysis; format: cell-based; settings: dose <= 10.0 µM
[2] = target: c-Myc/c-Max (Homo sapiens) (UniProt P01106+P61244); experiment: Disruption of c-Myc-Max interaction in human A549 cells assessed as decrease in at 10 uM incubated for 48 hrs by immunoprecipitation method; format: cell-based
A549 [3] = experiment: Induction of apoptosis in human A549 cells assessed as early apoptotic cells at 10 uM incubated for 48 hrs by Annexin V-FITC/PI staining based flow cytometry (reference value: 5.02 %); format: functional
Lewis lung carcinoma = experiment: In vivo inhibition of c-Myc in mouse Lewis lung carcinoma cells allografted in C57BL/6 mouse at 20 to 40 mg/kg, ip administered every two days for 28 days by Western blot analysis; format: functional, organism-based; settings: dose 20-40 mg/kg, time 28.0 day
A549 [4] = experiment: Cytotoxicity against human A549 cells assessed as inhibition of cell viability incubated for 48 hrs by CCK8 assay; format: functional, cell-based; settings: A549, 48 h
A549 [5] = experiment: Induction of apoptosis in human A549 cells assessed as necrotic cells at 5 uM incubated for 48 hrs by Annexin V-FITC/PI staining based flow cytometry (reference value: 1.41 %); format: functional
A549 [6] = experiment: Induction of apoptosis in human A549 cells assessed as early apoptotic cells at 5 uM incubated for 48 hrs by Annexin V-FITC/PI staining based flow cytometry (reference value: 5.02 %); format: functional
[7] = Cytotoxicity against human BEAS-2B cells assessed as cell viability upto 20 uM incubated for 48 hrs by CCK8 assay relative to control; format: toxicity, cell-based; settings: read-out: Activity
A549 [8] = experiment: Induction of apoptosis in human A549 cells assessed as early apoptotic cells at 2.5 uM incubated for 48 hrs by Annexin V-FITC/PI staining based flow cytometry (reference value: 5.02 %); format: functional
A549 [9] = experiment: Induction of apoptosis in human A549 cells assessed as increase in BAD level at 2.5 to 10 uM incubated for 48 hrs by Western blot analysis; format: functional, cell-based; settings: dose 2.5-10 µM
[10] = target: Myc proto-oncogene protein (Homo sapiens) (UniProt P01106); experiment: Inhibition of c-Myc in human A549 cells assessed as decrease in half life at 10 uM pretreated for 12 hrs followed by CHX treatment for 1 to 2 hrs by Western blot analysis; format: cell-based; settings: time 13-14 hrs
[11] = target: Myc proto-oncogene protein (Homo sapiens) (UniProt P01106); experiment: Inhibition of c-Myc in human A549 cells at 10 uM incubated for 24 hrs in presence of MG132 by Western blot analysis; format: cell-based
[12] = tested on: Lewis lung carcinoma cell line; experiment: Antitumor activity against mouse Lewis lung carcinoma cells allografted in C57BL/6 mouse at 40 mg/kg, ip administered every two days for 28 days relative to control; format: functional; settings: 672 h, time 28 day, read-out: TGI
A549 [13] = experiment: Induction of apoptosis in human A549 cells assessed as late apoptotic cells at 10 uM incubated for 48 hrs by Annexin V-FITC/PI staining based flow cytometry (reference value: 5.79 %); format: functional
[14] = Toxicity in C57BL/6 mouse allografted with mouse Lewis lung carcinoma cells assessed as body weight loss at 20 to 40 mg/kg, ip administered every two days for 28 days; format: organism-based; settings: in vivo, 672 h, dose 20-40 mg/kg, time 28 day
NCI-H1299 = experiment: Cytotoxicity against human NCI-H1299 cells assessed as inhibition of cell viability incubated for 48 hrs by CCK8 assay; format: functional, cell-based; settings: NCI-H1299, 48 h
A549 [15] = experiment: Induction of apoptosis in human A549 cells assessed as decrease in Bcl-2 level at 2.5 to 10 uM incubated for 48 hrs by Western blot analysis; format: functional, cell-based; settings: dose 2.5-10 µM
[16] = Toxicity in C57BL/6 mouse allografted with mouse Lewis lung carcinoma cells assessed as discernible signs of toxicity at 20 to 40 mg/kg, ip administered every two days for 28 days; format: organism-based; settings: in vivo, 672 h, dose 20-40 mg/kg, time 28 day
A549 [17] = experiment: Induction of apoptosis in human A549 cells assessed as late apoptotic cells at 5 uM incubated for 48 hrs by Annexin V-FITC/PI staining based flow cytometry (reference value: 5.79 %); format: functional
[18] = tested on: Lewis lung carcinoma cell line; experiment: Antitumor activity against mouse Lewis lung carcinoma cells allografted in C57BL/6 mouse assessed as inhibition of tumor growth administered intraperitoneally every two days for 28 days; format: functional, cell-based; settings: dose 20-40 mg/kg, route ip, time 28.0 day
A549 [19] = experiment: Induction of apoptosis in human A549 cells assessed as activation of caspase-9 cleavage at 2.5 to 10 uM incubated for 48 hrs by Western blot analysis; format: functional, cell-based; settings: dose 2.5-10 µM
[20] = Toxicity in C57BL/6 mouse allografted with mouse Lewis lung carcinoma cells assessed as pathological damage in heart at 20 mg/kg, ip administered every two days for 28 days by H and E staining based analysis; format: organism-based; settings: in vivo, 672 h, time 28 day
[21] = target: Myc proto-oncogene protein (Homo sapiens) (UniProt P01106); experiment: Inhibition of c-Myc transcriptional activity (unknown origin) at 10 uM by luciferase reporter gene assay
[22] = Toxicity in C57BL/6 mouse allografted with mouse Lewis lung carcinoma cells assessed as pathological damage in kidneys at 20 mg/kg, ip administered every two days for 28 days by H and E staining based analysis; format: organism-based, Kidney; settings: in vivo, 672 h, time 28 day
A549 [23] = experiment: Induction of apoptosis in human A549 cells incubated for 48 hrs by Annexin V-FITC/PI staining based flow cytometry; format: functional, cell-based; settings: dose 5-15 µM
[24] = Toxicity in C57BL/6 mouse allografted with mouse Lewis lung carcinoma cells assessed as pathological damage in spleen at 20 mg/kg, ip administered every two days for 28 days by H and E staining based analysis; format: organism-based; settings: in vivo, 672 h, time 28 day
A549 [25] = experiment: Induction of apoptosis in human A549 cells assessed as necrotic cells at 10 uM incubated for 48 hrs by Annexin V-FITC/PI staining based flow cytometry (reference value: 1.41 %); format: functional
A549 [26] = experiment: Effect on c-Myc mRNA expression in human A549 cells at 10 uM by Q-PCR analysis; format: functional, cell-based
[27] = Toxicity in C57BL/6 mouse allografted with mouse Lewis lung carcinoma cells assessed as pathological damage in liver at 20 mg/kg, ip administered every two days for 28 days by H and E staining based analysis; format: organism-based; settings: in vivo, 672 h, time 28 day
A549 [28] = experiment: Induction of apoptosis in human A549 cells assessed as viable cells at 5 uM incubated for 48 hrs by Annexin V-FITC/PI staining based flow cytometry (reference value: 87.8 %); format: functional; settings: read-out: Activity
A549 [29] = experiment: Induction of apoptosis in human A549 cells at 5 to 15 uM incubated for 48 hrs by Annexin V-FITC/PI staining based flow cytometry relative to control; format: functional; settings: dose 5-15 µM
A549 [30] = experiment: Induction of apoptosis in human A549 cells assessed as necrotic cells at 2.5 uM incubated for 48 hrs by Annexin V-FITC/PI staining based flow cytometry (reference value: 1.41 %); format: functional
A549 [31] = experiment: Induction of apoptosis in human A549 cells assessed as viable cells at 10 uM incubated for 48 hrs by Annexin V-FITC/PI staining based flow cytometry (reference value: 87.8 %); format: functional; settings: read-out: Activity
[32] = target: Myc proto-oncogene protein (Homo sapiens) (UniProt P01106); experiment: Inhibition of c-Myc in human A549 cells by Western blot analysis; format: cell-based; settings: dose <= 10.0 µM
A549 [33] = experiment: Induction of apoptosis in human A549 cells assessed as viable cells at 2.5 uM incubated for 48 hrs by Annexin V-FITC/PI staining based flow cytometry (reference value: 87.8 %); format: functional; settings: read-out: Activity
A549 [34] = experiment: Induction of apoptosis in human A549 cells assessed as late apoptotic cells at 2.5 uM incubated for 48 hrs by Annexin V-FITC/PI staining based flow cytometry (reference value: 5.79 %); format: functional
A549 [35] = experiment: Induction of apoptosis in human A549 cells assessed as increase in BAX level at 2.5 to 10 uM incubated for 48 hrs by Western blot analysis; format: functional, cell-based; settings: dose 2.5-10 µM
[36] = tested on: Lewis lung carcinoma cell line; experiment: Antitumor activity against mouse Lewis lung carcinoma cells allografted in C57BL/6 mouse at 20 mg/kg, ip administered every two days for 28 days relative to control; format: functional; settings: 672 h, time 28 day, read-out: TGI
A549 [37] = experiment: Induction of apoptosis in human A549 cells assessed as activation of caspase-3 cleavage at 2.5 to 10 uM incubated for 48 hrs by Western blot analysis; format: functional, cell-based; settings: dose 2.5-10 µM

Myc proto-oncogene protein (Homo sapiens), sequence (P01106 whole entry): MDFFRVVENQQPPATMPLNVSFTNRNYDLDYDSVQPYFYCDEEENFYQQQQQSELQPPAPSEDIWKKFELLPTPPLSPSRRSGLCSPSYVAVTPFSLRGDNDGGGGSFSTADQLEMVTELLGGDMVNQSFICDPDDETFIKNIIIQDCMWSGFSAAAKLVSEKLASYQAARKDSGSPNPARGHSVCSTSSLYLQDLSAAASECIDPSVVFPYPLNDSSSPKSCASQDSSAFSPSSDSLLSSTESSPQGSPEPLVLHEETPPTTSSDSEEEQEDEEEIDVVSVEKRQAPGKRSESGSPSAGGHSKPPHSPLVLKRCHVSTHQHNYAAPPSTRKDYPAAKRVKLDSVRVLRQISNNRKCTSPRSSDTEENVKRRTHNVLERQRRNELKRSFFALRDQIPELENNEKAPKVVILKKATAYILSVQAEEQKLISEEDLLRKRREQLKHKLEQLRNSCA
c-Myc/c-Max (Homo sapiens), sequence (P01106 whole entry): as above
c-Myc/c-Max (Homo sapiens), sequence (P61244 2-160 partner limits assumed): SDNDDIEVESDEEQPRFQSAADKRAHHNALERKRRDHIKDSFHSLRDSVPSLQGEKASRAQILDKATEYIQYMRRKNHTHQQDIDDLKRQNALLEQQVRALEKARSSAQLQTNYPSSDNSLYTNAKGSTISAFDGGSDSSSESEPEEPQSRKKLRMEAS

Structure (SMILES): c1ccc2c(c1)nc(-c1cc(-c3ccc(N4CCOCC4)cc3)on1)n2CCN1CCCCC1
- inhibition [1]: Dose-dependent-effect
- Activity [2]: Active
- Activity (A549 [3]): 37.8%
- inhibition (Lewis lung carcinoma): Active
- pIC50 (A549 [4]): 5.39
- Activity (A549 [5]): 2.63%
- Activity (A549 [6]): 9.5%
- viability at 48 h, 20 µM [7]: > 90%
- Activity (A549 [8]): 8.46%
- Activity (A549 [9]): Active
- inhibition [10]: Active
- inhibition [11]: inactive
- inhibition in vivo at 40 mg/kg [12]: 76.4%
- Activity (A549 [13]): 33%
- Activity [14]: Non-toxic
- pIC50 (NCI-H1299): 5.10
- Activity (A549 [15]): Active
- Activity [16]: Non-toxic
- Activity (A549 [17]): 19.6%
- inhibition [18]: Active
- Activity (A549 [19]): Active
- Activity [20]: Non-toxic
- inhibition [21]: Active
- Activity [22]: Non-toxic
- Activity (A549 [23]): Dose-dependent-effect
- Activity [24]: Non-toxic
- Activity (A549 [25]): 3.05%
- Activity (A549 [26]): inactive
- Activity [27]: Non-toxic
- viability at 5 µM (A549 [28]): 68.3%
- Activity (A549 [29]): 27%
- Activity (A549 [30]): 2.76%
- viability at 10 µM (A549 [31]): 26.1%
- inhibition [32]: Dose-dependent-effect
- viability at 2.5 µM (A549 [33]): 70.1%
- Activity (A549 [34]): 18.7%
- Activity (A549 [35]): Active
- inhibition in vivo at 20 mg/kg [36]: 59.9%
- Activity (A549 [37]): Active
